From article PMC9863297, “Intermolecular Interactions of Edaravone in Aqueous Solutions of Ethaline and Glyceline Inferred from Experiments and Quantum Chemistry Computations” (Molecules, 2023)
Like-named read-outs stand apart in the source and are kept apart here.

Assay: Edaravone solubility, slurry/shake-flask method with spectrophotometric determination at 243 nm
Format: physicochemical
Settings: thermodynamic from solid, read-out: cE solubility concentration
Procedure: The first step in obtaining a calibration curve was the preparation of a stock solution of edaravone with a concentration of 2.3 mg/mL. This initial solution was successfully diluted in 10 mL volumetric flasks with methanol and the obtained solutions with decreasing concentrations were measured spectrophotometrically. […] Three separate curves were obtained, and the final curve resulted from averaging. […] The limits of detection (LOD) and quantification (LOQ) were calculated as 5.899∙10^−4 mg/mL and 1.770∙10^−3 mg/mL, respectively.
All of the studied deep eutectic solvents included choline chloride, while the second constituent was either glycerol or ethylene glycol. In order to prepare a DES formulation, choline chloride was mixed with the second compound in different molar ratios in sealed test tubes and placed in a water bath at 363.15 K until the formation of a uniform solution. The obtained DES were either used in their neat form or water was added to them in different proportions in order to form binary systems.
During the next stage, edaravone was added in excess amounts to the test tubes containing both neat DES and binary mixtures, which enabled us to obtain its saturated solutions. Samples prepared in such a manner were placed in an Orbital Shaker Incubator ES-20/60 from Biosan (Riga, Latvia) and incubated for 24 h at different temperatures, namely 298.15 K, 303.15 K, 308.15 K and 313.15 K. The temperature adjustment accuracy was 0.1 K and its variability in a 24 h cycle was ±0.5 K. Apart from heating, all of the samples were mixed at 60 rev/min. The increased viscosity and density of DES systems required the samples to be centrifuged at 1000 rev/min for 5 min with the use of EBA 20 centrifuge from Hettich (Tuttlingen, Germany) enabling the undissolved precipitate to remain on the bottom of the test tubes. Next, the samples were filtered using a syringe equipped with a PTFE syringe filer with 0.22 µm pore size. In order to avoid precipitation, the test tubes, syringes and filters were initially heated at a temperature equal to the one of the handled samples. Finally, small amounts of the obtained filtrate were transferred to test tubes filled with methanol and the diluted samples were measured spectrophotometrically. Additionally, for the determination of the mole fractions of edaravone, the density of the samples was measured by weighing a fixed volume of the solution in 10 mL volumetric flasks.
For determining the solubility of edaravone in the studied systems, the samples prepared, as described above, were measured spectrophotometrically using an A360 spectrophotometer from AOE Instruments (Shanghai, China). The spectra were recorded in the 190 nm to 500 nm wavelength range and 1 nm resolution. Methanol was used for the initial calibration of the spectrophotometer and for the dilution of the measured samples, which was conducted in order for the absorbance values to remain below 2.5. The absorbance values at 243 nm were taken into account and based on the calibration curve prepared earlier, the concentration of edaravone in the samples was determined, followed by its mole fractions. The values were averaged from three separate measurements.

solubility at 24 h (25 °C, aqueous with cosolvent or surfactant or cyclodextrin, water + ETA (ChCl:EG 1:2), x*ETA = 0.2, 298.15 K): 221 mg/mL
solubility at 24 h (25 °C, aqueous with cosolvent or surfactant or cyclodextrin, water + ETA (ChCl:EG 1:2), x*ETA = 0.4, 298.15 K): 407 mg/mL
solubility at 24 h (25 °C, aqueous with cosolvent or surfactant or cyclodextrin, water + ETA (ChCl:EG 1:2), x*ETA = 0.5, 298.15 K): 457 mg/mL
solubility at 24 h (25 °C, aqueous with cosolvent or surfactant or cyclodextrin, water + GLE (ChCl:GL 1:2), x*GLE = 0.2, 298.15 K): 115 mg/mL
solubility at 24 h (25 °C, aqueous with cosolvent or surfactant or cyclodextrin, water + GLE (ChCl:GL 1:2), x*GLE = 0.4, 298.15 K): 233 mg/mL
solubility at 24 h (25 °C, aqueous with cosolvent or surfactant or cyclodextrin, water + GLE (ChCl:GL 1:2), x*GLE = 0.5, 298.15 K): 299 mg/mL
solubility at 24 h (25 °C, aqueous with cosolvent or surfactant or cyclodextrin, water + GLE (ChCl:GL 1:2), x*GLE = 0.8, 298.15 K): 266 mg/mL
solubility at 24 h (25 °C, organic solvent or mixture, neat DES choline chloride + glycerol (GLE) 1:2 molar ratio (x*GLE = 1.0), 298.15 K): 191 mg/mL
solubility at 24 h (25 °C, organic solvent or mixture, neat DES choline chloride + glycerol (GLE) 1:4 molar ratio, 298.15 K): 177 mg/mL
solubility at 24 h (30 °C, aqueous with cosolvent or surfactant or cyclodextrin, water + ETA (ChCl:EG 1:2), x*ETA = 0.2, 303.15 K): 270 mg/mL
solubility at 24 h (30 °C, aqueous with cosolvent or surfactant or cyclodextrin, water + ETA (ChCl:EG 1:2), x*ETA = 0.4, 303.15 K): 505 mg/mL
solubility at 24 h (30 °C, aqueous with cosolvent or surfactant or cyclodextrin, water + ETA (ChCl:EG 1:2), x*ETA = 0.5, 303.15 K): 554 mg/mL
solubility at 24 h (30 °C, aqueous with cosolvent or surfactant or cyclodextrin, water + GLE (ChCl:GL 1:2), x*GLE = 0.2, 303.15 K): 148 mg/mL
solubility at 24 h (30 °C, aqueous with cosolvent or surfactant or cyclodextrin, water + GLE (ChCl:GL 1:2), x*GLE = 0.4, 303.15 K): 328 mg/mL
solubility at 24 h (30 °C, aqueous with cosolvent or surfactant or cyclodextrin, water + GLE (ChCl:GL 1:2), x*GLE = 0.5, 303.15 K): 415 mg/mL
solubility at 24 h (30 °C, aqueous with cosolvent or surfactant or cyclodextrin, water + GLE (ChCl:GL 1:2), x*GLE = 0.6, 303.15 K): 464 mg/mL
solubility at 24 h (30 °C, aqueous with cosolvent or surfactant or cyclodextrin, water + GLE (ChCl:GL 1:2), x*GLE = 0.8, 303.15 K): 364 mg/mL
solubility at 24 h (30 °C, organic solvent or mixture, neat DES choline chloride + glycerol (GLE) 1:1 molar ratio, 303.15 K): 203 mg/mL
solubility at 24 h (30 °C, organic solvent or mixture, neat DES choline chloride + glycerol (GLE) 1:2 molar ratio (x*GLE = 1.0), 303.15 K): 282 mg/mL
solubility at 24 h (30 °C, organic solvent or mixture, neat DES choline chloride + glycerol (GLE) 1:4 molar ratio, 303.15 K): 246 mg/mL
solubility at 24 h (35 °C, aqueous with cosolvent or surfactant or cyclodextrin, water + ETA (ChCl:EG 1:2), x*ETA = 0.2, 308.15 K): 331 mg/mL
solubility at 24 h (35 °C, aqueous with cosolvent or surfactant or cyclodextrin, water + ETA (ChCl:EG 1:2), x*ETA = 0.4, 308.15 K): 603 mg/mL
solubility at 24 h (35 °C, aqueous with cosolvent or surfactant or cyclodextrin, water + GLE (ChCl:GL 1:2), x*GLE = 0.2, 308.15 K): 201 mg/mL
solubility at 24 h (35 °C, aqueous with cosolvent or surfactant or cyclodextrin, water + GLE (ChCl:GL 1:2), x*GLE = 0.4, 308.15 K): 402 mg/mL
solubility at 24 h (35 °C, aqueous with cosolvent or surfactant or cyclodextrin, water + GLE (ChCl:GL 1:2), x*GLE = 0.5, 308.15 K): 518 mg/mL
solubility at 24 h (35 °C, aqueous with cosolvent or surfactant or cyclodextrin, water + GLE (ChCl:GL 1:2), x*GLE = 0.6, 308.15 K): 567 mg/mL
solubility at 24 h (35 °C, aqueous with cosolvent or surfactant or cyclodextrin, water + GLE (ChCl:GL 1:2), x*GLE = 0.8, 308.15 K): 472 mg/mL
solubility at 24 h (35 °C, organic solvent or mixture, neat DES choline chloride + glycerol (GLE) 1:1 molar ratio, 308.15 K): 274 mg/mL
solubility at 24 h (35 °C, organic solvent or mixture, neat DES choline chloride + glycerol (GLE) 1:2 molar ratio (x*GLE = 1.0), 308.15 K): 369 mg/mL
solubility at 24 h (35 °C, organic solvent or mixture, neat DES choline chloride + glycerol (GLE) 1:4 molar ratio, 308.15 K): 336 mg/mL
solubility at 24 h (40 °C, aqueous with cosolvent or surfactant or cyclodextrin, water + ETA (ChCl:EG 1:2), x*ETA = 0.2, 313.15 K): 382 mg/mL
solubility at 24 h (40 °C, aqueous with cosolvent or surfactant or cyclodextrin, water + ETA (ChCl:EG 1:2), x*ETA = 0.4, 313.15 K): 684 mg/mL
solubility at 24 h (40 °C, aqueous with cosolvent or surfactant or cyclodextrin, water + GLE (ChCl:GL 1:2), x*GLE = 0.2, 313.15 K): 252 mg/mL
solubility at 24 h (40 °C, aqueous with cosolvent or surfactant or cyclodextrin, water + GLE (ChCl:GL 1:2), x*GLE = 0.4, 313.15 K): 514 mg/mL
solubility at 24 h (40 °C, aqueous with cosolvent or surfactant or cyclodextrin, water + GLE (ChCl:GL 1:2), x*GLE = 0.5, 313.15 K): 647 mg/mL
SMILES: CC1=NN(c2ccccc2)C(=O)C1 [edaravone, 5-methyl-2-phenyl-4H-pyrazol-3-one]
